For eleven compounds, AC50 results are on record in ChEMBL document CHEMBL5291721, “A preclinical secondary pharmacology resource illuminates target-adverse drug reaction associations of marketed drugs” (Nat Commun, 2023).

The target in one test is T1, Progesterone receptor (Homo sapiens, UniProt P06401).
T1 sequence (P06401 whole entry): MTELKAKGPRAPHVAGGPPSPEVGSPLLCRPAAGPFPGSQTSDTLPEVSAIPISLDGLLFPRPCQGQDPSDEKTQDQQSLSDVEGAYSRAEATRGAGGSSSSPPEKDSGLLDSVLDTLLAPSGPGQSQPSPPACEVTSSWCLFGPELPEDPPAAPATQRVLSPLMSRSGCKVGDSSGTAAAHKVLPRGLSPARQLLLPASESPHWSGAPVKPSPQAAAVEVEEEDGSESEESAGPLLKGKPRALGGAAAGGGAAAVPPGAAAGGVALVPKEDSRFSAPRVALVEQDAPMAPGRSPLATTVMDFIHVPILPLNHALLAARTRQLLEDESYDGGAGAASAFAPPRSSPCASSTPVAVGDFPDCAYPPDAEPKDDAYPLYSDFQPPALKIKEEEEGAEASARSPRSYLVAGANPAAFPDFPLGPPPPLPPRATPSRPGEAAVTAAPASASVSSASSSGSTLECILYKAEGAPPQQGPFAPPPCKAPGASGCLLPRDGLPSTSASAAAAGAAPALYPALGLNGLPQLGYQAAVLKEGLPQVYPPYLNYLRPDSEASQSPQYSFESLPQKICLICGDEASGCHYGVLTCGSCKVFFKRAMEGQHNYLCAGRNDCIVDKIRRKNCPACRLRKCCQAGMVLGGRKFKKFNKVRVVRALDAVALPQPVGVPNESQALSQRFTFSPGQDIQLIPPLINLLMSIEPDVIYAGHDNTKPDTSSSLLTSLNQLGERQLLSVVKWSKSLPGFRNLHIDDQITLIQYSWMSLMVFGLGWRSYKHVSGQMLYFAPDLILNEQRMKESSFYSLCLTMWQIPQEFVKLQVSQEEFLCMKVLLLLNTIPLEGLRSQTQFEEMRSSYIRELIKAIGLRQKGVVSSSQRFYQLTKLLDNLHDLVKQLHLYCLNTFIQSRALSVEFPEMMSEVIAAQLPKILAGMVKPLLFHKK

Test [1] addresses T2, Muscarinic acetylcholine receptor M1 (Homo sapiens, UniProt P11229).
T2 sequence (P11229 whole entry): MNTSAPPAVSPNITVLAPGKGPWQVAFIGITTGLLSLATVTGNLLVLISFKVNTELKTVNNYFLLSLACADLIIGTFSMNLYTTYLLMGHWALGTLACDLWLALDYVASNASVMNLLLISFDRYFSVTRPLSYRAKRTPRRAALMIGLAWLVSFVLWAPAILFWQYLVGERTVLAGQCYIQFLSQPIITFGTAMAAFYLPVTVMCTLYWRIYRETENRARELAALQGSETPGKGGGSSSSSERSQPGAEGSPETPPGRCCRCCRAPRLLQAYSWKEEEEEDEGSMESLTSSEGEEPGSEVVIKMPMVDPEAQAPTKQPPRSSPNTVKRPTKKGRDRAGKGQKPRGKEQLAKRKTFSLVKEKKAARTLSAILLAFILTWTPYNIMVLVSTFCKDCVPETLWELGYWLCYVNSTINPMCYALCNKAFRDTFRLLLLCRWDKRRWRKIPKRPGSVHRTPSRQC
Format: functional, cell-based.

Test [2] has as its target T3, Alpha-1A adrenergic receptor (Homo sapiens, UniProt P35348).
T3 sequence (P35348 whole entry): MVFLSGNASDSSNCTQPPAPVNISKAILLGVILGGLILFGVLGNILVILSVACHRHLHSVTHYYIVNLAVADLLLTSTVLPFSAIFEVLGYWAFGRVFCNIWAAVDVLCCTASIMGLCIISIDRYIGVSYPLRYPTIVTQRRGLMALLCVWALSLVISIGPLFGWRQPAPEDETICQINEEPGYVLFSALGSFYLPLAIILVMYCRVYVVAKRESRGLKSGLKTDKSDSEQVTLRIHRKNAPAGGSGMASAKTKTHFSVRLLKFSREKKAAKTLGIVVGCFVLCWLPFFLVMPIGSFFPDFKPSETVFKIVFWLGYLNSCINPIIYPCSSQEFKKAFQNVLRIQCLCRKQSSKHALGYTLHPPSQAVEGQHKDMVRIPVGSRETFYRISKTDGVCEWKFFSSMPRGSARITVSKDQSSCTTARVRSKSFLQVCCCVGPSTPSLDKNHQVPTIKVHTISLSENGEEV
Format: functional, cell-based.

For test [3], the target named is T4, 5-hydroxytryptamine receptor 1A (Homo sapiens, UniProt P08908).
T4 sequence (P08908 whole entry): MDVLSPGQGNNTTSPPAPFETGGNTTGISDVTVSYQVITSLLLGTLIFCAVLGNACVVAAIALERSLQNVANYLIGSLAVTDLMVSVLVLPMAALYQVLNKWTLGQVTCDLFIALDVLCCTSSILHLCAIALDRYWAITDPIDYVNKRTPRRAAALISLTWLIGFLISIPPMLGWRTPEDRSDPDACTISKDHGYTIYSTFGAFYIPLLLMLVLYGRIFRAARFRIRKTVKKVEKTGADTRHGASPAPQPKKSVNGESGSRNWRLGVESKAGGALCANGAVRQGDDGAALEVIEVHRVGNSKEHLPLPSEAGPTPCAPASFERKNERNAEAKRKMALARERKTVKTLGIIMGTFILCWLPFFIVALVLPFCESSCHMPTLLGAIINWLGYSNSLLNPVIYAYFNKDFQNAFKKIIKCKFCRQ

Another test concerns the target T5, Thromboxane A2 receptor (Homo sapiens, UniProt P21731).
T5 sequence (P21731 whole entry): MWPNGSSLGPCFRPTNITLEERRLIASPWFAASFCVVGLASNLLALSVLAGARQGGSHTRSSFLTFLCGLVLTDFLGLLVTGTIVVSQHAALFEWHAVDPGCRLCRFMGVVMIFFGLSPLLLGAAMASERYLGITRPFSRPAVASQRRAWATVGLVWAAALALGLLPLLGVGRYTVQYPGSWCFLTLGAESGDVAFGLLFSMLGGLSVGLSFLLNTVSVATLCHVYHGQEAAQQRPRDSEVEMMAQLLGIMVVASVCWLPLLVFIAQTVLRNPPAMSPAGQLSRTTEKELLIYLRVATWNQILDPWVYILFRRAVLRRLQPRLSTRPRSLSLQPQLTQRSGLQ
In kind it is functional, cell-based.

Test [4] deals with Sodium-dependent dopamine transporter (Homo sapiens, UniProt Q01959).
The next test has as its target D(1A) dopamine receptor (Homo sapiens, UniProt P21728).
The target of test [5] is Sodium-dependent serotonin transporter (Homo sapiens, UniProt P31645).
Test [6] deals with Sodium-dependent noradrenaline transporter (Homo sapiens, UniProt P23975).
Test [7] addresses 3',5'-cyclic-AMP phosphodiesterase 4A (Homo sapiens, UniProt P27815). Format: functional.

The structures appear in SMILES notation. A value given as a limit tells only on which side of the number the result lay.
Note: assay procedure not described here.

Sequence of D(1A) dopamine receptor (P21728 whole entry): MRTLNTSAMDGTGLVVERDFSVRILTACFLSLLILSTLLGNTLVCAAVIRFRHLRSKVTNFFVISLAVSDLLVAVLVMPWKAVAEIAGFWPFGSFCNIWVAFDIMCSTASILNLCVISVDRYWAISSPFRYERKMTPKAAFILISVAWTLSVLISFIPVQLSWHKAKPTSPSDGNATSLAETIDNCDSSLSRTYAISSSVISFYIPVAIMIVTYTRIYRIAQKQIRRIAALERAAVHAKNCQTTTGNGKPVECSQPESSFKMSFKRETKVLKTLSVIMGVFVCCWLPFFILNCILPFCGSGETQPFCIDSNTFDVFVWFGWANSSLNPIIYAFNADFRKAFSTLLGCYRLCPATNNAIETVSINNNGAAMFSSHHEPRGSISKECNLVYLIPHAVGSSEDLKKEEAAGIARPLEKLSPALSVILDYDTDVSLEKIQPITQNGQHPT
Sequence of Sodium-dependent noradrenaline transporter (P23975 whole entry): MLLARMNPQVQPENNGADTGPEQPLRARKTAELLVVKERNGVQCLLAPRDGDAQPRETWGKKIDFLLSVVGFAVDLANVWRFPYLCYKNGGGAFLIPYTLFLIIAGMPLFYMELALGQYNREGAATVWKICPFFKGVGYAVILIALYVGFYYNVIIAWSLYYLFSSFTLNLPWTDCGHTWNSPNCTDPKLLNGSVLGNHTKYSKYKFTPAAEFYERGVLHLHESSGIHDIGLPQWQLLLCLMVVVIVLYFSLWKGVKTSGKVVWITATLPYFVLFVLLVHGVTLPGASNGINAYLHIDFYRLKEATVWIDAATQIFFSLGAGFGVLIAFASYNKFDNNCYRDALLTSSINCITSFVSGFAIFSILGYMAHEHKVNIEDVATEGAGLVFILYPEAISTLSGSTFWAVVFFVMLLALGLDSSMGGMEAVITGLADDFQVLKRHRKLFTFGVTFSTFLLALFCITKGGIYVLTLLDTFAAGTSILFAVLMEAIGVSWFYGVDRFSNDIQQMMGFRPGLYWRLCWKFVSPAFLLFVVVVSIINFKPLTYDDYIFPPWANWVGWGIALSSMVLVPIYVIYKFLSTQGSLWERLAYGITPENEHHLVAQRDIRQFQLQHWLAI
Sequence of 3',5'-cyclic-AMP phosphodiesterase 4A (P27815 whole entry): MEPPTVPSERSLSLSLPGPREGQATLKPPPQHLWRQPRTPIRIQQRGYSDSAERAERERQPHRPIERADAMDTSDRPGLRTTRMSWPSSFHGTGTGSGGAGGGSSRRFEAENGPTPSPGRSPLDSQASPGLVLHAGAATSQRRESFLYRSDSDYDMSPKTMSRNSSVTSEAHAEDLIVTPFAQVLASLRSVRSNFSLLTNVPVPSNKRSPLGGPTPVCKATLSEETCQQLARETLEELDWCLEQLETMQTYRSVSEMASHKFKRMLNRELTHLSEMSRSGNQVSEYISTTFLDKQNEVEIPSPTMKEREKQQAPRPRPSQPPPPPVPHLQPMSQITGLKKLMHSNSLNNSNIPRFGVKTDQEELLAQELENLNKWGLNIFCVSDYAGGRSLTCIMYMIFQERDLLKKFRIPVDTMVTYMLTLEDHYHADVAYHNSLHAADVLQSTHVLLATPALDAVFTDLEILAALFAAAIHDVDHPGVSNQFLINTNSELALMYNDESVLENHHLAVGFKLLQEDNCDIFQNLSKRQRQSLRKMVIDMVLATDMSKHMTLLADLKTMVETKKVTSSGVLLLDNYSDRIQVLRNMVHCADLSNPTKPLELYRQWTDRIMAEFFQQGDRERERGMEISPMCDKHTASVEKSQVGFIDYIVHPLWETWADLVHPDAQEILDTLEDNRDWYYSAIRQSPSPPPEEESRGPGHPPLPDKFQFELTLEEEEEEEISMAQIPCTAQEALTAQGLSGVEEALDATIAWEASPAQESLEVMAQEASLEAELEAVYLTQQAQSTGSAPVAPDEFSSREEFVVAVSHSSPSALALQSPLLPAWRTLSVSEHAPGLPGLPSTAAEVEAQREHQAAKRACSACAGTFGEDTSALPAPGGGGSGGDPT
Sequence of Sodium-dependent serotonin transporter (P31645 whole entry): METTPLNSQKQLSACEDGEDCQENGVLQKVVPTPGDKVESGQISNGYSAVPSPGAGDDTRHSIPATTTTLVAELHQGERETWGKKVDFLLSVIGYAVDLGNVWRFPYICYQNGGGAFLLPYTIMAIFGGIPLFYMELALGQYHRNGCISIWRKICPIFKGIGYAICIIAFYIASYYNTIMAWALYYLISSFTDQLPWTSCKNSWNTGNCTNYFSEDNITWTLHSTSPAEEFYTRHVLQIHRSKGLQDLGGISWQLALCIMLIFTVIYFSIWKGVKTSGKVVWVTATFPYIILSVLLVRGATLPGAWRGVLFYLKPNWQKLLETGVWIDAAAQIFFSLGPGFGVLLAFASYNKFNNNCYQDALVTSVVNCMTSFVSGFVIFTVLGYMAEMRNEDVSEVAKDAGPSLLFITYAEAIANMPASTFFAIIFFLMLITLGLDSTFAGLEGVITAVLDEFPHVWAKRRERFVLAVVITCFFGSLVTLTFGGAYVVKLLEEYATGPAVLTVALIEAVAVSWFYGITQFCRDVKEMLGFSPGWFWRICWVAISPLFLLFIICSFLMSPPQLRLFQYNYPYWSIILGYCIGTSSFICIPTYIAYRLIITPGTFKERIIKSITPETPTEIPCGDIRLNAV
Sequence of Sodium-dependent dopamine transporter (Q01959 whole entry): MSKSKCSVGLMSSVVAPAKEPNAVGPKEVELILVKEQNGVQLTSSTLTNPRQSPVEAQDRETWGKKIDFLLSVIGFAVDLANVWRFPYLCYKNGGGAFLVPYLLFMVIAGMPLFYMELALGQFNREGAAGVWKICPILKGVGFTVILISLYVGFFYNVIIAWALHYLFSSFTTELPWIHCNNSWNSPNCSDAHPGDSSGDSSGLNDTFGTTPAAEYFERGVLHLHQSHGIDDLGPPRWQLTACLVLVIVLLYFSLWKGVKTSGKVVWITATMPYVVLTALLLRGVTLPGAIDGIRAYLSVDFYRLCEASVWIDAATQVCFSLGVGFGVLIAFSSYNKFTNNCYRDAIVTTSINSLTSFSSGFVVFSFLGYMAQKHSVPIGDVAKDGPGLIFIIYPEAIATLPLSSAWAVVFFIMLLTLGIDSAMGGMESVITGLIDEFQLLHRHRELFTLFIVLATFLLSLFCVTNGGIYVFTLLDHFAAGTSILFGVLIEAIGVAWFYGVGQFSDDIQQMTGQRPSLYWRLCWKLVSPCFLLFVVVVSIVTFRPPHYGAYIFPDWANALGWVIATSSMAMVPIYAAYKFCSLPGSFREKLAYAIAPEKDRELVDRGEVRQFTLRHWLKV

`CC(=O)c1ccc2c(c1)N(CCCN(C)C)c1ccccc1S2` [ACEPROMAZINE]: the half-maximal activity concentration (AC50) (usually the concentration at which the activity in the assay is half-maximal) on Progesterone receptor is more than 30 µM; in test [1], more than 30 µM; in test [2], more than 30 µM; in test [3], 0.248 µM; on Thromboxane A2 receptor, 13.7 µM; in test [4], 19.5 µM. Moreover, the AC50 is 0.0259 µM on D(1A) dopamine receptor, 0.145 µM in test [5], 0.161 µM in test [6] and more than 30 µM in test [7].
With `C[S+](CC[C@H](N)C(=O)[O-])C[C@H]1O[C@@H](n2cnc3c(N)ncnc32)[C@H](O)[C@@H]1O` (stereo not given in full) [ADEMETIONINE], the AC50 (at Progesterone receptor; in [1]; in test [2]; in test [3]; on Thromboxane A2 receptor; in test [4]) was more than 30 µM each time. Besides, the AC50 (at D(1A) dopamine receptor; in test [5]; in [6]; in test [7]) was more than 30 µM in each case.
As for `Nc1ccncc1N` [AMIFAMPRIDINE], the AC50 (on Progesterone receptor; in test [1]; in test [2]; in test [3]; on Thromboxane A2 receptor; in test [4]) was more than 30 µM each time. For the same compound, the half-maximal activity concentration (AC50) (at D(1A) dopamine receptor; in [5]; in test [6]; in [7]) was more than 30 µM throughout.
Take `CCC(C)(C)c1ccc(CC(C)CN2C[C@@H](C)O[C@@H](C)C2)cc1` (stereo not given in full) [AMOROLFINE]: the AC50 (on Progesterone receptor; in test [1]; in test [2]; in [3]; on Thromboxane A2 receptor; in [4]) was more than 30 µM throughout. Also, the AC50 (on D(1A) dopamine receptor; in test [5]; in test [6]; in test [7]) was more than 30 µM each time.
On to `N=c1ccn2c(n1)O[C@H]1[C@H](O)[C@@H](CO)O[C@H]12` [ANCITABINE], for which the AC50 (at Progesterone receptor; in test [1]; in test [2]; in test [3]; on Thromboxane A2 receptor; in test [4]) was more than 30 µM in each case. Besides, the AC50 (on D(1A) dopamine receptor; in [5]; in [6]; in test [7]) was more than 30 µM throughout.
Turning to `NC(=O)C[C@H](N)C(=O)O` [ASPARAGINE], the AC50 (on Progesterone receptor; in [1]; in test [2]; in test [3]; at Thromboxane A2 receptor; in test [4]) was more than 30 µM throughout. The AC50 (on D(1A) dopamine receptor; in test [5]; in test [6]; in [7]) was more than 30 µM throughout.
`CC1=C(/C=C/C(C)=C/C=C/C(C)=C/C=C/C=C(C)/C=C/C=C(C)/C=C/C2=C(C)CCCC2(C)C)C(C)(C)CCC1` [BETA CAROTENE]: the AC50 (at Progesterone receptor; in test [1]; in test [2]; in test [3]; on Thromboxane A2 receptor; in [4]) was more than 30 µM in each case. The AC50 (at D(1A) dopamine receptor; in test [5]; in test [6]; in [7]) was more than 30 µM each time.
As for `CC(C)(C)N1CCC(c2ccccc2)(c2ccccc2)CC1` [BUDIPINE], the AC50 (at Progesterone receptor; in [1]; in test [2]; in test [3]; at Thromboxane A2 receptor; in [4]) was more than 30 µM each time. Further, the AC50 (at D(1A) dopamine receptor; in test [5]; in [6]; in [7]) was more than 30 µM each time.
As to `C=CCN1C[C@H](C(=O)N(CCCN(C)C)C(=O)NCC)C[C@@H]2c3cccc4[nH]cc(c34)C[C@H]21` [CABERGOLINE], the AC50 is more than 30 µM at Progesterone receptor; more than 30 µM in test [1]; 0.142 µM in [2]; 0.0083 µM in test [3]; more than 30 µM at Thromboxane A2 receptor; 4.64 µM in [4]. Also, the AC50 was 0.648 µM on D(1A) dopamine receptor, more than 30 µM in test [5], 29.6 µM in test [6] and more than 30 µM in test [7].
Take `CC(=O)OCC1=C(C(=O)O)N2C(=O)[C@@H](NC(=O)[C@H](N)c3ccccc3)[C@H]2SC1` [CEPHALOGLYCIN]: the AC50 (on Progesterone receptor; in test [1]; in test [2]; in test [3]; at Thromboxane A2 receptor; in [4]) was more than 30 µM throughout. Besides, the AC50 (on D(1A) dopamine receptor; in [5]; in test [6]; in [7]) was more than 30 µM each time.
For the compound `CC(C)(C)C(=O)C(Oc1ccc(Cl)cc1)n1ccnc1` (stereo not given) [CLIMBAZOLE], the concentration at half-maximal activity (AC50) on Progesterone receptor was more than 30 µM; in [1], more than 30 µM; in test [2], more than 30 µM; in [3] it was more than 30 µM; at Thromboxane A2 receptor, more than 30 µM; in test [4] it was 0.0662 µM. The AC50 at D(1A) dopamine receptor is more than 30 µM; in test [5], 29.7 µM; in [6] it was 20.8 µM; in test [7], more than 30 µM.
